Experimental data: patent US9999222B2, “Herbicidal combination comprising azines” (BASF SE, priority 2014, dated 2018)
Read-outs that look alike come from different tables or passages of the source.

Tests used:
Experiment in all cases: Greenhouse test, pre-emergence treatment
ABUTH = assay type: in vivo, Abutilon theophrasti; details: Abutilon theophrasti, 480 h
Description: (§1) The culture containers used were plastic flowerpots containing loamy sand with approximately 3.0% of humus as the substrate. The seeds of the test plants were sown separately for each species.
(§2) For the pre-emergence treatment, the active ingredients, which had been suspended or emulsified in water, were applied directly after sowing by means of finely distributing nozzles. The containers were irrigated gently to promote germination and growth and subsequently covered with transparent plastic hoods until the plants had rooted. This cover caused uniform germination of the test plants, unless this had been impaired by the active ingredients.
(§3) Depending on the species, the plants were kept at 10-25° C. or 20-35° C., respectively.
(§4) The test period extended over 2 to 4 weeks. During this time, the plants were tended, and their response to the individual treatments was evaluated.
(§5) Evaluation was carried out using a scale from 0 to 100. 100 means no emergence of the plants, or complete destruction of at least the aerial moieties, and 0 means no damage, or normal course of growth. A moderate herbicidal activity is given at values of at least 60, a good herbicidal activity is given at values of at least 70, and a very good herbicidal activity is given at values of at least 85.
(§6) The respective stated components a and b, and if appropriate, c were formulated as a 10% by weight strength emulsion concentrate and, with addition of the amount of solvent system, introduced into the spray liquor used for applying the active compound.
(§7) In the examples, the solvent used was water.
(§8) In the examples below, using the method of S. R. Colby (1967) “Calculating synergistic and antagonistic responses of herbicide combinations”, Weeds 15, p. 22ff., the value E, which is expected if the activity of the individual active compounds is only additive, was calculated. E=X+Y−(X·Y/100) where • X=percent activity using active compound a at an application rate A; • Y=percent activity using active compound b at an application rate B; • E=expected activity (in %) by a+b at application rates A+B.
(§9) If the value found experimentally is higher than the value E calculated according to Colby, a synergistic effect is present.

POLCO = assay type: in vivo, Polygonum convolvulus; details: pre-emergence
Description: as §1, §2, §3, §4, §5, §6, §7, §8, §9

ANTAR = assay type: in vivo; details: Anthemis arvensis, 480 h, 20 DAT, read-out: observed % activity
Description: as §1, §2, §3, §4, §5, §6, §7, §8, §9

COMBE = assay type: in vivo, Commelina benghalensis; details: Commelina benghalensis, pre-emergence, 480 h
Description: as §1, §2, §3, §4, §5, §6, §7, §8, §9

EPHHL = assay type: in vivo, Euphorbia heterophylla; details: Euphorbia heterophylla, pre-emergence, 480 h
Description: as §1, §2, §3, §4, §5, §6, §7, §8, §9

GALAP = assay type: in vivo, Galium aparine; details: Galium aparine, pre-emergence, 480 h
Description: as §1, §2, §3, §4, §5, §6, §7, §8, §9

GERPU = assay type: in vivo, Geranium pusillum; details: Geranium pusillum, pre-emergence, 480 h
Description: as §1, §2, §3, §4, §5, §6, §7, §8, §9

KCHSC = assay type: in vivo, Kochia scoparia; details: Bassia scoparia, pre-emergence, 480 h
Description: as §1, §2, §3, §4, §5, §6, §7, §8, §9

IPOHE = assay type: in vivo, Ipomoea hederacea; details: Ipomoea hederacea, 480 h, 50 g ai/ha, 20 DAT, read-out: observed % activity
Description: as §1, §2, §3, §4, §5, §6, §7, §8, §9

SIDRH = assay type: in vivo, Sida rhombifolia
Description: as §1, §2, §3, §4, §5, §6, §7, §8, §9

CENCY = assay type: in vivo; details: 480 h, individual, read-out: observed % activity 20 DAT
[1] = 25 g ai/ha, 20 DAT, read-out: observed % activity
[2] = 50 g ai/ha, 20 DAT, read-out: observed % activity
[3] = 6 g ai/ha, 20 DAT, read-out: observed % activity
[4] = 12 g ai/ha, 20 DAT, read-out: observed % activity

Question: Which results are given for CS(=O)(=O)c1ccc(C(=O)C2C(=O)CCCC2=O)c([N+](=O)[O-])c1 [Mesotrione, mesotrione]?
Answer: inhibition at 25 g/ha (ABUTH; [1]): 95%; inhibition at 25 g/ha (POLCO; Fallopia convolvulus, 480 h, 25 g ai/ha, 20 DAT, read-out: observed % activity): 20%; inhibition at 50 g/ha (POLCO; Fallopia convolvulus, 480 h, 50 g ai/ha, 20 DAT, read-out: observed % activity): 30%; inhibition at 25 g/ha (POLCO; Fallopia convolvulus, 480 h, POLCO, individual, use rate 25 g ai/ha, read-out: observed % activity 20 DAT): 0%; inhibition at 50 g/ha (POLCO; Fallopia convolvulus, 480 h, POLCO, individual, use rate 50 g ai/ha, read-out: observed % activity 20 DAT): 0%; inhibition at 25 g/ha (ANTAR; 25 g ai/ha): 85%; inhibition at 50 g/ha (ANTAR; 50 g ai/ha): 95%; inhibition at 25 g/ha (COMBE; [1]): 65%; inhibition at 50 g/ha (COMBE; [2]): 98%; inhibition at 25 g/ha (COMBE; COMBE, individual, use rate 25 g ai/ha, read-out: observed % activity 20 DAT): 0%; inhibition at 50 g/ha (COMBE; COMBE, individual, use rate 50 g ai/ha, read-out: observed % activity 20 DAT): 0%; inhibition at 25 g/ha (EPHHL; [1]): 60%; inhibition at 50 g/ha (EPHHL; [2]): 70%; inhibition at 25 g/ha (EPHHL; EPHHL, individual, use rate 25 g ai/ha, read-out: observed % activity 20 DAT): 50%; inhibition at 50 g/ha (EPHHL; EPHHL, individual, use rate 50 g ai/ha, read-out: observed % activity 20 DAT): 60%; inhibition at 50 g/ha (GALAP; [2]): 75%; inhibition at 25 g/ha (GALAP; GALAP, individual, use rate 25 g ai/ha, read-out: observed % activity 20 DAT): 65%; inhibition at 50 g/ha (GALAP; GALAP, individual, use rate 50 g ai/ha, read-out: observed % activity 20 DAT): 80%; inhibition at 25 g/ha (GERPU; [1]): 0%; inhibition at 50 g/ha (GERPU; [2]): 0%; inhibition at 25 g/ha (GERPU; GERPU, individual, use rate 25 g ai/ha, read-out: observed % activity 20 DAT): 70%; inhibition at 25 g/ha (KCHSC; [1]): 70%; inhibition at 50 g/ha (KCHSC; [2]): 90%; inhibition at 50 g/ha (IPOHE): 30%; observed % activity (SIDRH; 25 g ai/ha, 20 DAT): 55%; inhibition at 25 g/ha (SIDRH; Sida rhombifolia, pre-emergence, 480 h, 25 g ai/ha, 20 DAT, read-out: observed % activity): 60%; inhibition at 50 g/ha (SIDRH; Sida rhombifolia, pre-emergence, 480 h, 50 g ai/ha, 20 DAT, read-out: observed % activity): 85%; inhibition at 25 g/ha (CENCY; use rate 25 g ai/ha): 60%; inhibition at 50 g/ha (CENCY; use rate 50 g ai/ha): 40%

Question: What does the source list for Cc1nn(-c2cc(NS(C)(=O)=O)c(Cl)cc2Cl)c(=O)n1C(F)F [Sulfentrazone, sulfentrazone]?
Answer: inhibition at 6 g/ha (ABUTH; [3]): 20%; inhibition at 12 g/ha (ABUTH; [4]): 45%; inhibition at 10 g/ha (ABUTH; ABUTH, individual, use rate 10 g ai/ha, read-out: observed % activity 20 DAT): 25%; inhibition at 6 g/ha (POLCO; Fallopia convolvulus, 480 h, 6 g ai/ha, 20 DAT, read-out: observed % activity): 0%; inhibition at 12 g/ha (POLCO; Fallopia convolvulus, 480 h, 12 g ai/ha, 20 DAT, read-out: observed % activity): 0%; inhibition at 10 g/ha (POLCO; Fallopia convolvulus, 480 h, POLCO, individual, use rate 10 g ai/ha, read-out: observed % activity 20 DAT): 25%; observed % activity 20 DAT (POLCO; POLCO, individual, use rate 5 g ai/ha): 40%; inhibition at 6 g/ha (ANTAR; 6 g ai/ha): 30%; inhibition at 12 g/ha (ANTAR; 12 g ai/ha): 60%; inhibition at 6 g/ha (COMBE; [3]): 20%; inhibition at 12 g/ha (COMBE; [4]): 45%; inhibition at 10 g/ha (COMBE; COMBE, individual, use rate 10 g ai/ha, read-out: observed % activity 20 DAT): 15%; inhibition at 6 g/ha (GALAP; [3]): 0%; inhibition at 5 g/ha (GALAP; GALAP, individual, use rate 5 g ai/ha, read-out: observed % activity 20 DAT): 25%; inhibition at 10 g/ha (GALAP; GALAP, individual, use rate 10 g ai/ha, read-out: observed % activity 20 DAT): 50%; inhibition at 6 g/ha (GERPU; [3]): 40%; inhibition at 12 g/ha (GERPU; [4]): 45%; inhibition at 12 g/ha (KCHSC; [4]): 98%; inhibition at 5 g/ha (KCHSC; KCHSC, individual, use rate 5 g ai/ha, read-out: observed % activity 20 DAT): 70%; inhibition at 10 g/ha (KCHSC; KCHSC, individual, use rate 10 g ai/ha, read-out: observed % activity 20 DAT): 65%; inhibition at 6 g/ha (SIDRH; Sida rhombifolia, pre-emergence, 480 h, 6 g ai/ha, 20 DAT, read-out: observed % activity): 20%; inhibition at 10 g/ha (SIDRH; Sida rhombifolia, pre-emergence, 480 h, SIDRH, pre-emergence, individual, use rate 10 g ai/ha, read-out: observed % activity 20 DAT): 30%; inhibition at 5 g/ha (CENCY; use rate 5 g ai/ha): 20%; inhibition at 10 g/ha (CENCY; use rate 10 g ai/ha): 30%
